# Experimental data: US20100317831A1, “PROBE COMPOUNDS FOR PROTEIN TYROSINE PHOSPHATASE (PTP) AND PRECURSORS THEREOF” (NATIONAL TAIWAN UNIVERSITY, priority 2009, published 2010)
# Biological target: T1, PTP1B (Homo sapiens, UniProt P18031)
# T1 sequence (P18031 1-435): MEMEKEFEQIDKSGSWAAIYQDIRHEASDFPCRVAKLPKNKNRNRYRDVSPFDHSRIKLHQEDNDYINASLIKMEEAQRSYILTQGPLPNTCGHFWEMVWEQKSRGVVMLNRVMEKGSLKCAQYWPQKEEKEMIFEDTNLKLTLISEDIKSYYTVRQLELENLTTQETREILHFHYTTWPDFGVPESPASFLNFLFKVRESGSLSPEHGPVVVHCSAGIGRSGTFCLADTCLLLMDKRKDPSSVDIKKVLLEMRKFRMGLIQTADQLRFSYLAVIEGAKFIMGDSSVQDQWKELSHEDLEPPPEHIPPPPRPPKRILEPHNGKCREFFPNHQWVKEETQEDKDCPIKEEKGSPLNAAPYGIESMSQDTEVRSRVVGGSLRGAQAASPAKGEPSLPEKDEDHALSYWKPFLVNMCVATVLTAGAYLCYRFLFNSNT
# Assay: PTP1B labeling by probe compound (streptavidin immunoblot)
# Format: biochemical
# Source text: FIG. 1b was visualized by immunoblotting analysis (streptavidin) after transferring the reaction products onto a nitrocellulose membrane. […] Since the probe compounds themselves are also the substrates of the corresponding PTPs, the results clearly indicate that the newly developed latent trapping unit well mimics the phosphorotyrosine residue of the natural substrate. […] In the absence of PTPs, they underwent hydrolysis slowly and the purity remained greater than 90% even after 1 hr (as determined by HPLC).
# To test if probe compounds 30a-c could differentiate PTPs from other phosphatases, we conducted labeling experiments on nine phosphatases, including five PTPs, alkaline phosphatase (ALP), PTEN (dephosphorylating the phosphatidylinositol 3,4,5-trisphosphate), and two serine/threonine phosphatases (PPP1CA and PPM1A).
# In order to further study how well probe compounds 30a-c could differentiate between the various PTPs, we compared the labeling intensities on five PTPs (PTP1B, SHP2, TCPTP, VHR, and PTPPEST) with those obtained from probe 1 (LCL2). When the intensities of the probe compounds 30a-c-labeled bands in each set of experiments were normalized relative to that of a probe 1-labeled band, we were able to establish a quantitative comparison of their labeling preference (as shown in FIGS. 4a to 4e). […] Of the five PTPs tested, the substrate specificities of PTP1B, TCPTP, and SHP2 were better studied than those of VHR and PTP-PEST. […] The trend of substrate preference obtained from this study was similar to those determined by other methods. We have also compared the labeling intensity data for the other two PTPs, VHR (a dual-specificity phosphatase) and PTP-PEST (a classical PTP). […] This provides evidence to support the concept that probe compounds with added amino acid residues flanking the latent trapping device were able to influence their target specificities.
structure (smiles),measurement,setting,value
CC(C)CC(NC(=O)C(Cc1ccc(OP(=O)(O)O)c(CF)c1)NC(=O)C(CCC(=O)O)NC(=O)CCC(=O)NCCOCCOCCNC(=O)CCCCC1SC[C@H]2NC(=O)N[C@@H]12)C(N)=O (stereo partly drawn) [compound 30b],biotinylated adduct (labeling of PTP1B) with phosphatase inhibitor present,Na3VO4 present in the incubation mixture,no biotinylated adduct was observed
same,activity dependence of labeling of PTPs,"PTP1B and TCPTP, conclusion from Na3VO4 control",activity dependent
same,biotinylated protein bands (labeling of PTP1B),"immunoblotting analysis (streptavidin), FIG. 1b",Intense biotinylated protein bands were observed
